According to US7238374B2, “Process and substances for the release of a growth-regulating factor from endothelial cells” (priority 1998, dated 2007):

Experiments:
[1] = Partition between octanol and aqueous phosphate buffer pH 7; assay type: physicochemical
Protocol: Cells in a culture medium can be viewed as a two-phase system consisting of water and lipids. The distribution of the alkaloids in cell cultures and in mixtures of octanol and water was studied. […] The alkaloids were partitioned between equal volumes of octanol and aqueous phosphate buffer pH 7 (0.01 M) at 20° C. The concentrations c of the alkaloids were determined by HPLC analysis and the coefficients of distribution [formula] were calculated.

[2] = stimulant IMM-2418 (1.1 μM)
Protocol: A RPMI-1640 culture medium (Sigma-Aldrich Company, St. Louis, USA) completed with 10% by volume fetal calf serum, 2 mM glutamin, 50 units/ml penicillin G, and 50 μg/ml streptomycin was used.

[3] = Equilibria of isomers in an octanol-water two-phase system; assay type: physicochemical; conditions: octanol-water system (1:1) with mitraphylline and isomitraphylline, approximately pH 5
Source text: As expected the equilibrium of isomers in a two-phase system (1aq ? 1org, 2aq ? 2org, FIG. 3) depends not only on the pH value of the aqueous phase but also on the amount and nature of the organic phase, For an example, the equilibria of mitraphylline and isomitraphylline in an octanol-water system (1:1) at pH values from 3 to 7 are shown (FIG. 4). It can be seen that in the pH range from 4 to 7 isomitraphylline is predominant in the octanol phase, with a maximum of 94 mol-% at approximately pH 5. However, below pH 3 mitraphylline begins to prevail in the aqueous phase. At no pH value is isomitraphylline produced in the aqueous phase to a reasonable extent. Therefore, the distribution of the isomers in a 2-phase system is clearly different compared to the situation in a purely aqueous solution.

[4] = octanol / aqueous phosphate buffer pH 7 (0.01 M), equal volumes, 20° C.

With `COC(=O)C1=CO[C@@H](C)[C@@H]2CN3CC[C@]4(C(=O)Nc5ccccc54)[C@@H]3C[C@H]12` [Pteropodine] the “log KO/W (common logarithm of the partition coefficient)” value (“log KO/W” for short) ([1]; pH 7) was 2.9.
In the case of `CC[C@H]1CN2CC[C@]3(C(=O)Nc4ccccc43)[C@@H]2C[C@@H]1/C(=C\OC)C(=O)OC` [Rhynchophylline], the “log KO/W” value [1, 4] is reported as 2.7, the “alkaloid concentration in RPMI-1640 nutrient medium, 7 Days” value [2] is reported as 0.13 mg/L and the “alkaloid concentration in RPMI-1640 nutrient medium, Start” value [2] is reported as 0.15 mg/L.
In the case of `COC(=O)C1=CO[C@@H](C)[C@H]2CN3CC[C@@]4(C(=O)Nc5ccccc54)[C@@H]3C[C@H]12` [Isomitraphylline], the “log KO/W” value ([1]; pH 7) is reported as 2.8 and the “equilibrium concentration in the octanol phase, maximum” value [3] is reported as 94 mol-%.
With `COC(=O)C1=CO[C@@H](C)[C@@H]2CN3CC[C@]4(C(=O)Nc5ccccc54)[C@H]3C[C@H]12` [Uncarine F] the “log KO/W” value [1, 4] was 3.1.
With `COC(=O)C1=CO[C@@H](C)[C@@H]2CN3CC[C@@]4(C(=O)Nc5ccccc54)[C@@H]3C[C@H]12` [Isopteropodine] the “log KO/W” value ([1]; pH 7) was 3.2.
In the case of `COC(=O)C1=CO[C@@H](C)[C@@H]2CN3CC[C@@]4(C(=O)Nc5ccccc54)[C@H]3C[C@H]12` [Speciophylline], the “log KO/W” value ([1]; pH 7) is reported as 1.4.
In the case of `COC(=O)C1=CO[C@@H](C)[C@H]2CN3CC[C@]4(C(=O)Nc5ccccc54)[C@@H]3C[C@H]12` [Mitraphylline], the “log KO/W” value ([1]; pH 7) is reported as 2.5.
For `CC[C@H]1CN2CC[C@@]3(C(=O)Nc4ccccc43)[C@@H]2C[C@@H]1/C(=C\OC)C(=O)OC` [Isorhynchophylline], the “log KO/W” value [1, 4] was 3.1, the “alkaloid concentration in RPMI-1640 nutrient medium, 7 Days” value [2] was 0.27 mg/L and the “alkaloid concentration in RPMI-1640 nutrient medium, Start” value [2] was 0.27 mg/L.
